Reference: patent US20230312564A1, “AROMATIC RING-LACTAM COMPOUND, PREPARATION METHOD THEREFOR AND USE THEREOF” (SHANGHAI RINGENE BIOPHARMA CO., LTD., priority 2020, published 2023)
“And” between values parts separate entries of the source, which are not always exact repeats. Equal values may be shown once. Read-outs that look alike come from different tables or passages of the source.

How the values were obtained:
[1] = Liver microsomal metabolic stability, rat; format: in vitro ADME; settings: 0.5 mg/mL microsomes, 1 μM compound, NADPH; for half-life at 1 μM: liver microsomes, read-out: Liver microsomal stability T1/2
Description: (§1) The reaction was stopped with tinidazole-containing acetonitrile at 0 min, 5 min, 10 min and 30 min, respectively. After vortexing for 10 min and centrifuging at 15,000 rmp for 10 min, 50 μL of the supernatant was injected into a 96-well plate. The metabolic stability of the compound was calculated by determining the relative reduction of the drug, calculated as half-life T1/2.

[2] = Liver microsomal metabolic stability, dog; format: in vitro ADME; settings: 0.5 mg/mL microsomes, 1 μM compound, NADPH; for half-life at 1 μM: liver microsomes, read-out: Liver microsomal stability T1/2
Description: as §1

[3] = Liver microsomal metabolic stability, human; format: in vitro ADME; settings: 0.5 mg/mL microsomes, 1 μM compound, NADPH; for half-life at 1 μM: liver microsomes, read-out: Liver microsomal stability T1/2
Description: as §1

[4] = Liver microsomal metabolic stability, mouse; format: in vitro ADME; settings: 0.5 mg/mL microsomes, 1 μM compound, NADPH; for half-life at 1 μM: liver microsomes, read-out: Liver microsomal stability T1/2
Description: as §1

ERK1/2 kinase = molecular target: T1, ERK1/2 kinase; assay: ERK1/2 kinase (Carna) inhibitory activity, Caliper mobility shift; format: biochemical; settings: for IC50: numeric values, read-out: ERK½ IC50
T1 construct: fused on or other part: Carna's ERK products carry a GST tag by vendor knowledge
Description: (1) Preparation of 1×Kinase buffer; (2) preparation of compound concentration gradient: the initial test concentration of the tested compound was 10 μM, which was 3-fold diluted to 10 concentrations, and a duplicate test was conducted, and then the tested compound was diluted in a 96 well plate to a 100-fold final concentration of 10 different concentrations of solution. […] Log (inhibitor) vs. response—Variable slope of the analysis software GraphPad Prism 5 was used to fit the dose-effect curve to obtain the IC50 value of each compound on the enzyme activity.
2. […] (A<10 nM, 10 nM≤B<200 nM, C≥200 nM)

Colo-205 cells = assay: Colo-205 tumor cell proliferation, CCK-8, 72 hours; format: cell-based; settings: for IC50: 72 hours, CCK-8, read-out: Colo-205 IC50; for cell proliferation inhibitory activity (in words): Colo-205
Description: 1. Test method: Colo-205 cells (ATCC) in logarithmic growth phase were inoculated into a 96-well culture plate at an appropriate density with 90 μL per well. After overnight culture, different concentrations of the compound were added and acted for 72 hours, and a solvent control group (negative control) was set. After the compound was acted on cells for 72 hours, the effect of the compound on cell proliferation was detected by the cell counting kit CCK-8 (Dojindo), and 10 μL of CCK-8 reagent was added to each well. After the plate was placed in a 37° C. incubator for 2 to 4 hours, a full-wavelength microplate reader SpectraMax 190 was adopted for obtaining the readings with a measured wavelength of 450 nm. […] The IC50 value was obtained by four-parameter regression with the software attached to the microplate reader.

[5] = Liver microsomal stability, comparisons in words across species; format: in vitro ADME; settings: for stability of different kinds of liver microsomes (in words): different species, versus the comparative compounds
Description: as §1

[6] = Homo sapiens, COLO 205, numeric values
[7] = rat, dog and human, compared with the comparative compound 1

Row | Structure (SMILES) | half-life at 1 μM [1] [min] | half-life at 1 μM [2] [min] | half-life at 1 μM [3] [min] | half-life at 1 μM [4] [min] | IC50 (ERK1/2 kinase) [nM] | IC50 (Colo-205 cells; numeric values) [nM] | cell proliferation inhibitory activity (in words) (Colo-205 cells) | Liver microsomal stability T1/2 [1] | Liver microsomal stability T1/2 [2] | Liver microsomal stability T1/2 [3] [min] | Liver microsomal stability T1/2 [4] [min] | stability of different kinds of liver microsomes (in words) [5] | enzyme inhibitory activity (in words) (ERK1/2 kinase) | IC50 (Colo-205 cells; [6]) [nM] | stability in liver microsomes (in words) [5, 7] | stability in liver microsomes (in words) ([5]; rat, dog and human, compared with the comparative compounds 1 and 3) | IC50 (Colo-205 cells; class symbols) [nM] | stability in liver microsomes (in words) ([5]; rat and human, compared with the comparative compounds 1 and 4)
1 | COc1cc(F)cc([C@@H](CO)NC(=O)[C@@H](C)N2Cc3ccc(-c4nc(NC5CCOCC5)ncc4Cl)cc3C2=O)c1 [Comparative compound 5, (R)-2-(6-(5-Chloro-2-((tetrahydro-2H-pyran-4-yl)amino)pyrimidin-4-yl)-1-oxoisoindolin-2-yl)-N—((S)-1-(3-fluoro-5-methoxyphenyl)-2-hydroxyethyl)propanamide, reference compound] | 3 | 41 | 3 | 15 |  |  |  |  |  |  |  |  |  |  |  |  |  | 
2 | C[C@H](C(=O)N[C@H](CO)c1cccc(Cl)c1)N1Cc2ccc(-c3nc(NC4CCOCC4)ncc3Cl)c(F)c2C1=O [Embodiment 34] |  |  |  |  | 0.8 | 34.3 | strong cell proliferation inhibitory activity | 19 min | 75 min | 18 | 12 | significant advantages |  |  |  |  |  | 
3 | C[C@H](C(=O)N[C@H](CO)c1cccc(Cl)c1)N1Cc2ccc(-c3ccnc(Nc4ccnn4C)c3)cc2C1=O [compound 2, (R)—N—((S)-1-(3-Chlorophenyl)-2-hydroxyethyl)-2-(6-(2-((1-methyl-1H-pyrazol-5-yl)amino)pyridin-4-yl)-1-oxoisoindolin-2-yl)propanamide, reference compound] |  |  |  |  |  | 88.6 | strong cell proliferation inhibitory activity | 18 min | 403 min | 15 |  |  | extremely strong enzyme inhibitory activity | 354 | significantly improved | significantly improved |  | 
4 | Cc1cccc([C@@H](CO)NC(=O)[C@@H](C)N2Cc3ccc(-c4nc(NC5CCOCC5)ncc4Cl)c(F)c3C2=O)c1 [Embodiment 25] |  |  |  |  | 0.7 |  |  | 10 min and 15 min | 60 min and 70 min | 18 |  |  | extremely strong enzyme inhibitory activity |  | significantly improved |  | < 100 | significantly improved
5 | C[C@H](C(=O)N[C@H](CO)c1cccc(Cl)c1)N1Cc2ccc(-c3nc(NC4CCOCC4)ncc3Cl)nc2C1=O [Embodiment 21] | 13 | 78 | 62 | 234 | 5.3 |  |  |  |  |  |  | significant advantages |  | 90.9 |  |  |  | 
